Source: patent publication EP3212201B1, “NUCLEOSIDE KINASE INHIBITORS” (BCI Pharma, priority 2014, dated 2016)

Columns and labels:
Test in all cases: FRET-based coupled-enzyme protein kinase inhibition assay
Format in all cases: biochemical
Conditions in all cases: compound at 10 µM, 1% DMSO
[1] = target: MAPK14 (p38 alpha) (Homo sapiens, UniProt Q16539)
In short: (§1)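 FRET peptide (coumarin donor, fluorescein acceptor) was phosphorylated by each kinase in 50 mM HEPES pH 7.5, 10 mM MgCl2, 1 mM EDTA, 0.01% BRIJ-35 for 60 min at room temperature. ATP was at apparent Km, compounds in 1% DMSO. Protease development reagent then cleaved non-phosphorylated peptide over 60 min.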

[2] = target: T1, IKBKB (IKK beta) (Homo sapiens, UniProt O14920)
T1 sequence (O14920 1-756): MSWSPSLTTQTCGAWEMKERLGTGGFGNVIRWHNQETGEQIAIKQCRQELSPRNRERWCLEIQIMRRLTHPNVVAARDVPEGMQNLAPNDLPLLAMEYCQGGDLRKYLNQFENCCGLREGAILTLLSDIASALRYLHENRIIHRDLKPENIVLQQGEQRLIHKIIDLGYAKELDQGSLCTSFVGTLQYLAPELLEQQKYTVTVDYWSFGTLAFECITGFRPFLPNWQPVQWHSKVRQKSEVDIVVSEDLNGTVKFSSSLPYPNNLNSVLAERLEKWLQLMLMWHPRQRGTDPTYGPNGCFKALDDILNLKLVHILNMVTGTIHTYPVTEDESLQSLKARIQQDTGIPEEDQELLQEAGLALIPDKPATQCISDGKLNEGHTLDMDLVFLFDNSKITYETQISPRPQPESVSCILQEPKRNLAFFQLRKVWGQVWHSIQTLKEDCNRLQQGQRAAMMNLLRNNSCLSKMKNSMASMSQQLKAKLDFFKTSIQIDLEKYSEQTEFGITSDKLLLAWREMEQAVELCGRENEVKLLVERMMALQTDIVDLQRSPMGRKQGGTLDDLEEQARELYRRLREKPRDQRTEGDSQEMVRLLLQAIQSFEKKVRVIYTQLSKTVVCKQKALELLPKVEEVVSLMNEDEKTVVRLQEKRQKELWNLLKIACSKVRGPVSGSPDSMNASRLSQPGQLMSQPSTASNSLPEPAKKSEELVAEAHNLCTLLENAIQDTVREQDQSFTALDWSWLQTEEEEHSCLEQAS
In short: as §1

[3] = target: BTK (Homo sapiens, UniProt Q06187)
In short: as §1

[4] = target: ERBB2 (HER2) (Homo sapiens, UniProt P04626)
In short: as §1

[5] = target: FRAP1 (mTOR) (Homo sapiens, UniProt P42345)
In short: as §1

[6] = target: ROCK1 (Homo sapiens, UniProt Q13464)
In short: as §1

[7] = target: MARK2 (Homo sapiens, UniProt Q7KZI7)
In short: as §1

[8] = target: AKT1 (PKB alpha) (Homo sapiens, UniProt P31749)
In short: as §1

[9] = target: RPS6KB1 (p70S6K) (Homo sapiens, UniProt P23443)
In short: as §1

[10] = target: PRKACA (PKA) (Homo sapiens, UniProt P17612)
In short: as §1

[11] = target: PDGFRB (PDGFR beta) (Homo sapiens, UniProt P09619)
In short: as §1

[12] = target: PAK4 (Homo sapiens, UniProt O96013)
In short: as §1

[13] = target: CSNK2A1 (CK2 alpha 1) (Homo sapiens, UniProt P68400)
In short: as §1

[14] = target: MAP4K4 (HGK) (Homo sapiens, UniProt O95819)
In short: as §1

[15] = target: FGFR1 (Homo sapiens, UniProt P11362)
In short: as §1

[16] = target: CDK1/cyclin B (Homo sapiens, UniProt P06493)
In short: as §1

Chain of PAK4 (O96013 whole entry, species assumed): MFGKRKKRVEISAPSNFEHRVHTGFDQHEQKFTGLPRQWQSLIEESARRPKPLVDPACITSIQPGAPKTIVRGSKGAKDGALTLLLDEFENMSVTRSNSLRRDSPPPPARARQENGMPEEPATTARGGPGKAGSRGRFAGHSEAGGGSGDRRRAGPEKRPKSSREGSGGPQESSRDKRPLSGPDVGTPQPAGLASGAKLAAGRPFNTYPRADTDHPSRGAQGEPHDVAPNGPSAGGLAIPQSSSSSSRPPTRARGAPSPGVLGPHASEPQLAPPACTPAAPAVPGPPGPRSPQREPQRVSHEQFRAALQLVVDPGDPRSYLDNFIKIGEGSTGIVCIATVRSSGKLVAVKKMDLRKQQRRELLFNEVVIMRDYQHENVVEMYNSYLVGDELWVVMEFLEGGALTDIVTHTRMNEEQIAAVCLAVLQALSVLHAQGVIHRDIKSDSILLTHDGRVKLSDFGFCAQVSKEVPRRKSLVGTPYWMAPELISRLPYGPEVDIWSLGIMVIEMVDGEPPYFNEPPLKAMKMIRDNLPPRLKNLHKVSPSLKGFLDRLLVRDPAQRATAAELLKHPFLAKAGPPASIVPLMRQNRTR
Chain of MARK2 (Q7KZI7 whole entry, species assumed): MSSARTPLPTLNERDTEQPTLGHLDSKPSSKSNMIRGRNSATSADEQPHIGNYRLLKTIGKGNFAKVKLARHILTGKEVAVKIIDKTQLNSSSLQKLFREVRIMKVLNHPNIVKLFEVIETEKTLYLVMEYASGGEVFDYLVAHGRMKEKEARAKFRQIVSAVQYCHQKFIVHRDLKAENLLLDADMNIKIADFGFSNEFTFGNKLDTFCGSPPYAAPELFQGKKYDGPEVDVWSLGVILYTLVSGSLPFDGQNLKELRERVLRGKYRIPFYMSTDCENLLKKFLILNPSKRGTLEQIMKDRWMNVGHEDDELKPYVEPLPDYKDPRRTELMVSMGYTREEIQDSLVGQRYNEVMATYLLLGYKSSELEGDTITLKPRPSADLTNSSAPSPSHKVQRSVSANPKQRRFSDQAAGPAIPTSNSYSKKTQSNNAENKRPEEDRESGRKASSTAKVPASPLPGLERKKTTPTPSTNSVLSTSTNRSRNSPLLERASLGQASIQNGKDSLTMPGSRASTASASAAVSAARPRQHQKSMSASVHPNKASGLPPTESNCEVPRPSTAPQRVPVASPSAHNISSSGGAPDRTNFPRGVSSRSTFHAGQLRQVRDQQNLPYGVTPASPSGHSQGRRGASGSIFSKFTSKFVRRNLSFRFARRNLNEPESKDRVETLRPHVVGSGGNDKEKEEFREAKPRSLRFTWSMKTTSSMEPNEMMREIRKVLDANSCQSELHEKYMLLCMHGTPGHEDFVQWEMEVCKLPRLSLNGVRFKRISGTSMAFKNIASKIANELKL
Chain of BTK (Q06187 whole entry, species assumed): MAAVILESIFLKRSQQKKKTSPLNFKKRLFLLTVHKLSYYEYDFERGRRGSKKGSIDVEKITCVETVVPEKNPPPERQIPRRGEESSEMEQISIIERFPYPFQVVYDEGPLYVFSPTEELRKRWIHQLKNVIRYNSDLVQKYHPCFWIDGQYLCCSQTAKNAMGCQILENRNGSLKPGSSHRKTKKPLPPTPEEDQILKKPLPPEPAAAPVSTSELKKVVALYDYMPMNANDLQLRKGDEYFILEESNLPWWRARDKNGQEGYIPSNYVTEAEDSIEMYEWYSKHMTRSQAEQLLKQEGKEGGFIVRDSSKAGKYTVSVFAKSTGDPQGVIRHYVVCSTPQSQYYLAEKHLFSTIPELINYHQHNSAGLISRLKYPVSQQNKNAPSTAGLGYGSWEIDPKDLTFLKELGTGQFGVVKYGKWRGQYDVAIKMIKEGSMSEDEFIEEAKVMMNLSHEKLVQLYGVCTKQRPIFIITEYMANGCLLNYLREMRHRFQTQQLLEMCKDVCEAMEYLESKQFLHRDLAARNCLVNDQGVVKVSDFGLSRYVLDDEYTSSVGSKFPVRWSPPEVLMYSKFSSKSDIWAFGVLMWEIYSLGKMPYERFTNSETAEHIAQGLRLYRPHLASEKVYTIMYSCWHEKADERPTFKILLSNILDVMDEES
Chain of ERBB2 (HER2) (P04626 23-1255, species assumed): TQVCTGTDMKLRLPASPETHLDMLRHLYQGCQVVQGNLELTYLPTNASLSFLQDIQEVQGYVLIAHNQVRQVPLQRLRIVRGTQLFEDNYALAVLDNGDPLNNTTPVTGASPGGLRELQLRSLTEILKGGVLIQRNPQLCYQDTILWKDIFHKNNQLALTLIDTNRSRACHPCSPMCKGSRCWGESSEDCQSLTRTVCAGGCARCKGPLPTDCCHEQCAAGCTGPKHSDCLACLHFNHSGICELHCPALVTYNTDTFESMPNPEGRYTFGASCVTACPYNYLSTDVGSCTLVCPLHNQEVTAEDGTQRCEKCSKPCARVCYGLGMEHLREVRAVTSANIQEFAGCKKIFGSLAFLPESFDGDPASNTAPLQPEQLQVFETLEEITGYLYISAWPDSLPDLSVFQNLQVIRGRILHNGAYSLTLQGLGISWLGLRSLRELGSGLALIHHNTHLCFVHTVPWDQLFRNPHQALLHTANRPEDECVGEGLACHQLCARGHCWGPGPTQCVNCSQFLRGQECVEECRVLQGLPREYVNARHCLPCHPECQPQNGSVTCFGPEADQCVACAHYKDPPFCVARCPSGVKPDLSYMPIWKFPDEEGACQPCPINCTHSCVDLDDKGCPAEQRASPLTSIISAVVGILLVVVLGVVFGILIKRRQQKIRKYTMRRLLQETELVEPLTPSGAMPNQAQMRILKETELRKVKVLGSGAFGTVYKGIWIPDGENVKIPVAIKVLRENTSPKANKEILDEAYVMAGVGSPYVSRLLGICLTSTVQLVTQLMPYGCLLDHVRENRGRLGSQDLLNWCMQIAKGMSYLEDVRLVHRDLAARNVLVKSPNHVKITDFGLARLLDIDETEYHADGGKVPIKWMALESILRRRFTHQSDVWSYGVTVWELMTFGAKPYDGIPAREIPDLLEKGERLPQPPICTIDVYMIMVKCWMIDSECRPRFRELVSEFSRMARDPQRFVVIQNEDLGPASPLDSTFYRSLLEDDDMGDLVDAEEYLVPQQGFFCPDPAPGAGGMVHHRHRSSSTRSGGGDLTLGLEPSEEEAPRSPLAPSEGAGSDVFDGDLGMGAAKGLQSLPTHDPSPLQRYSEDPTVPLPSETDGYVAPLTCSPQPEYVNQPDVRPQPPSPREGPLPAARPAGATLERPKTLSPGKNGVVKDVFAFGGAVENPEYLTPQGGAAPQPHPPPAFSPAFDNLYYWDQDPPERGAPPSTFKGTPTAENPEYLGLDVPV
Chain of RPS6KB1 (p70S6K) (P23443 whole entry, species assumed): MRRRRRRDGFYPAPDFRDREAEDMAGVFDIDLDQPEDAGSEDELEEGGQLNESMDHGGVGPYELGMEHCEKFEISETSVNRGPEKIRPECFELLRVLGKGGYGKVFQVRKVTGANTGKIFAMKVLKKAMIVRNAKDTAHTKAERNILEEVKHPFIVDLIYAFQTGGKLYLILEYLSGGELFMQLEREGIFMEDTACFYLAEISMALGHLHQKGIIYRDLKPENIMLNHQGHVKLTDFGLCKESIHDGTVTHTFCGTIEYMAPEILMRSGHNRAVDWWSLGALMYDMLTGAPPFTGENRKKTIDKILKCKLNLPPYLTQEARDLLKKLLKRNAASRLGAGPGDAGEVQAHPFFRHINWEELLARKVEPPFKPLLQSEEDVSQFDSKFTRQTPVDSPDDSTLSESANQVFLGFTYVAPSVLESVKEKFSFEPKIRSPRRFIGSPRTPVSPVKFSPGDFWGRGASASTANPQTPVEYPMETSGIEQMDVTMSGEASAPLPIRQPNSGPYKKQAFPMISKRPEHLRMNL
Chain of MAPK14 (p38 alpha) (Q16539 whole entry, species assumed): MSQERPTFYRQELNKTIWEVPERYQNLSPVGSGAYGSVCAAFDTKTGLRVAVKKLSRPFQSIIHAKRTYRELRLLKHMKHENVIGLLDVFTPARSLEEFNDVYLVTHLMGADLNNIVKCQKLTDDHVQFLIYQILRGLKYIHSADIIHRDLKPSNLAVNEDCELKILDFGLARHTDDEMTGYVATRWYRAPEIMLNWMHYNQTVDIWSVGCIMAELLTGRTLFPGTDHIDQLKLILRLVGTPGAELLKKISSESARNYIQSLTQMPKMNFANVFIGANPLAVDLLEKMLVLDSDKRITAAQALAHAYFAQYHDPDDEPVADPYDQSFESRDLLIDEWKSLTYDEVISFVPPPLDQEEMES
Chain of FGFR1 (P11362 22-822, species assumed): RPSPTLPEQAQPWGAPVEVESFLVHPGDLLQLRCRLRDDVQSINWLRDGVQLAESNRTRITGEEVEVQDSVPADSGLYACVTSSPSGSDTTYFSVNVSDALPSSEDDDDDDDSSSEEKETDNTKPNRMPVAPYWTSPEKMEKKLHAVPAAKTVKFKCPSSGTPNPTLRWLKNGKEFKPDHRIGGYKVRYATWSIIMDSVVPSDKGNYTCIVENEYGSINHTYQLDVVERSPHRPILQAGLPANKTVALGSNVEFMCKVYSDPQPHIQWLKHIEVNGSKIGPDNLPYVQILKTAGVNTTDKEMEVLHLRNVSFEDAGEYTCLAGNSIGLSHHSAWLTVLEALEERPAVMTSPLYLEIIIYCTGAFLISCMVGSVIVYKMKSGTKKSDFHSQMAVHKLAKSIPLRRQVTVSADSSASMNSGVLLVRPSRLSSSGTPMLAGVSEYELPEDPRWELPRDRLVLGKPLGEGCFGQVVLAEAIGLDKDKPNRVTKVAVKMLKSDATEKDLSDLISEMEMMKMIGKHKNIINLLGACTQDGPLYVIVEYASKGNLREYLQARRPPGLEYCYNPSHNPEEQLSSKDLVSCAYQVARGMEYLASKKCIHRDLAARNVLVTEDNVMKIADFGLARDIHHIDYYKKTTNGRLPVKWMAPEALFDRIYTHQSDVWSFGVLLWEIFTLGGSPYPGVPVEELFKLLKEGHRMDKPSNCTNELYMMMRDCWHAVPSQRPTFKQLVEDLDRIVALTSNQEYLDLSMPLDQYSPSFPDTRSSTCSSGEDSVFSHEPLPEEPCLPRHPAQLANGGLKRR

Row | Compound | inhibition at 10 µM [1] [%] | inhibition at 10 µM [2] [%] | inhibition at 10 µM [3] [%] | inhibition at 10 µM [4] [%] | inhibition at 10 µM [5] [%] | inhibition at 10 µM [6] [%] | inhibition at 10 µM [7] [%] | inhibition at 10 µM [8] [%] | inhibition at 10 µM [9] [%] | inhibition at 10 µM [10] [%] | inhibition at 10 µM [11] [%] | inhibition at 10 µM [12] [%] | inhibition at 10 µM [13] [%] | inhibition at 10 µM [14] [%] | inhibition at 10 µM [15] [%] | inhibition at 10 µM [16] [%]
1 | Nc1ncnc2c1ncn2[C@@H]1O[C@H](COC(=O)N2CCN(Cc3ccccc3)CC2CO)[C@@H](O)[C@H]1O (some centres unmarked) [Compound C13] | 0 | -7 | 9 | 3 | -1 | -7 | 11 | 2 | 10 | -1 | 6 | 7 | 3 | -5 | 5 | 9
2 | Nc1ncnc2c1ncn2[C@@H]1O[C@H](COC(=O)N2CCN(C(=O)N3CCOCC3)CC2)[C@@H](O)[C@H]1O [Compound C89] | -2 | -10 | 4 | -7 | -4 | -15 | -3 | 2 | 0 | -1 | 9 | -4 | 8 | 9 | 16 | 1
3 | C[C@@H](NC(=O)OC[C@H]1O[C@@H](n2cnc3c(N)ncnc32)[C@H](O)[C@@H]1O)c1ccc(Cl)cc1 [Compound C4] | -1 | -6 | 2 | 2 | -5 | -7 | 20 | -2 | 22 | 20 | 5 | 12 | 8 | 16 | 6 | 8

Next, values leading:

Row | inhibition at 10 µM [1] [%] | inhibition at 10 µM [2] [%] | inhibition at 10 µM [3] [%] | inhibition at 10 µM [4] [%] | inhibition at 10 µM [5] [%] | inhibition at 10 µM [6] [%] | inhibition at 10 µM [7] [%] | inhibition at 10 µM [8] [%] | inhibition at 10 µM [9] [%] | inhibition at 10 µM [10] [%] | inhibition at 10 µM [11] [%] | inhibition at 10 µM [12] [%] | inhibition at 10 µM [13] [%] | inhibition at 10 µM [14] [%] | inhibition at 10 µM [15] [%] | inhibition at 10 µM [16] [%] | Compound
4 | 5 | -3 | 0 | -14 | 5 | -3 | 4 | 4 | 14 | 3 | 1 | 4 | 5 | 13 | 9 | 7 | CN1CCN(CCNC(=O)OC[C@H]2O[C@@H](n3cnc4c(N)ncnc43)[C@H](O)[C@@H]2O)CC1 [Compound C46]
5 | -3 | -6 | 4 | -7 | 5 | 2 | 10 | 7 | 11 | 43 | 5 | 19 | 5 | 9 | 26 | 4 | Nc1ncnc2c1ncn2[C@@H]1O[C@H](COC(=O)NC[C@H](O)CO)[C@@H](O)[C@H]1O [Compound C8]
